Data as given in paper PMC5298035 (Clinical Pharmacology in Drug Development, 2016).
Counter-ions that a name gives are not always drawn. Like-named read-outs stand apart in the source and are kept apart here.

Columns and labels:
[1] = Phase 1 ethinyl estradiol/norethindrone interaction study: plasma PK; assay type: in vivo, human; conditions: for Geometric least-squares mean ratio, AUC0-∞ / Geometric least-squares mean ratio, AUClast / Geometric least-squares mean ratio, Cmax: (90% CI); for AUCτ: n = 23, arithmetic mean (SD)
CYP1A2 [2] = conditions: cultured human hepatocytes; ref data on file; cited from earlier work
CYP2A6 = conditions: pooled human liver microsomes; ref data on file; cited from earlier work
[3] = Phase 1 rifampin interaction study: plasma PK of isavuconazole; assay type: in vivo, human
CYP3A5 = conditions: CYP3A5-expressing human liver microsomes; ref data on file; cited from earlier work
CYP2D6 = conditions: pooled human liver microsomes; ref data on file; cited from earlier work
CYP2B6 [4] = conditions: CYP2B6-expressing human liver microsomes; ref data on file; cited from earlier work
CYP3A7 = conditions: CYP3A7-expressing human liver microsomes; ref data on file; cited from earlier work
CYP2E1 = conditions: pooled human liver microsomes; ref data on file; cited from earlier work
CYP2C9 [5] = conditions: pooled human liver microsomes; ref data on file; cited from earlier work
CYP2C9 [6] = conditions: in vitro; ref unpublished data; cited from earlier work
[7] = assay type: in vivo, human
Safety [8] = assay type: in vivo, human; conditions: ketoconazole study, by treatment period
CYP1A2 [9] = conditions: pooled human liver microsomes; ref data on file; cited from earlier work
CYP4A11 = conditions: pooled human liver microsomes; ref data on file; cited from earlier work
CYP2C8 [10] = conditions: cultured human hepatocytes; ref data on file; cited from earlier work
CYP2C8 [11] = conditions: CYP2C8-expressing human liver microsomes; ref data on file; cited from earlier work
CYP2C19 [12] = conditions: cultured human hepatocytes; ref data on file; cited from earlier work
CYP3A4 [13] = target: T1, CYP3A4 (Homo sapiens, UniProt P08684); experiment: Clinical CYP3A4 drug-drug interaction classification; assay type: in vivo
CYP3A4 [14] = target: T1, CYP3A4; conditions: CYP3A4-expressing human liver microsomes; ref data on file; cited from earlier work
[15] = coadministration with lopinavir/ritonavir; cited from earlier work
CYP2C9 [16] = conditions: cultured human hepatocytes; ref data on file; cited from earlier work
Safety [17] = assay type: in vivo, human; conditions: rifampin study, by treatment period
[18] = assay type: in vivo, human; remark: listed apart in the source
CYP2B6 [19] = conditions: cultured human hepatocytes; ref data on file; cited from earlier work
CYP3A4 [20] = target: T1, CYP3A4; conditions: cultured human hepatocytes; ref data on file; cited from earlier work
[21] = cited from earlier work
CYP2B6 [22] = conditions: in vitro; ref unpublished data; cited from earlier work
Safety [23] = assay type: in vivo, human; conditions: ethinyl estradiol/norethindrone study, by treatment period
P-glycoprotein = conditions: in vitro; ref unpublished data; cited from earlier work
[24] = active drug released from prodrug; cited from earlier work
CYP2C19 [25] = conditions: pooled human liver microsomes; ref data on file; cited from earlier work
[26] = active drug released from prodrug; cited from earlier work; remark: listed apart in the source
Safety [27] = assay type: in vivo, human; conditions: midazolam study, by treatment period
esterases = conditions: in the gut and blood; cited from earlier work
CYP3A4 [28] = conditions: cited from earlier work
CYP3A4 [29] = conditions: cited from earlier work; remark: listed apart in the source
[30] = ethinyl estradiol, presence vs absence of isavuconazole
[31] = ethinyl estradiol: + isavuconazole vs alone
[32] = coadministration with rifampin 600 mg QD vs isavuconazole alone
[33] = isavuconazole + rifampin vs isavuconazole alone, (90% CI)
[34] = both, human, plasma, po, 200 mg
[35] = isavuconazole + ketoconazole vs isavuconazole alone, (90% CI)
[36] = presence vs absence of ketoconazole 200 mg BID
[37] = midazolam + isavuconazole vs midazolam alone, (90% CI)
[38] = midazolam, presence vs absence of isavuconazole
[39] = norethindrone, coadministration with isavuconazole vs alone
[40] = norethindrone: + isavuconazole vs alone

T1 sequence (P08684 whole entry): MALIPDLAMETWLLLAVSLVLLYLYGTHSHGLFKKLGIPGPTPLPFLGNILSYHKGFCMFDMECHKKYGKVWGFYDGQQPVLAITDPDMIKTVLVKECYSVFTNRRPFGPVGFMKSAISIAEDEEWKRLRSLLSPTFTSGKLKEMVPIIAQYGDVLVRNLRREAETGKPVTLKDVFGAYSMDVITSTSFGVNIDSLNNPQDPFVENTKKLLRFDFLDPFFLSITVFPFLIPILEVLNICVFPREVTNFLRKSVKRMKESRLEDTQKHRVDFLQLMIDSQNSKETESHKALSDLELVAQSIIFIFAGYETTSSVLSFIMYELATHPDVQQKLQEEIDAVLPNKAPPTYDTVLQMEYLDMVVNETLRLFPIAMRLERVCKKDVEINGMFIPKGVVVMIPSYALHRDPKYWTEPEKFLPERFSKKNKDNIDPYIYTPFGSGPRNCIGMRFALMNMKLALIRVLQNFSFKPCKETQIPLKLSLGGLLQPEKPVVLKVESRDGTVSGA

SMILES: C#C[C@]1(O)CC[C@H]2[C@@H]3CCc4cc(O)ccc4[C@H]3CC[C@@]21C [Ethinyl Estradiol, ethinyl estradiol]
- increase in mean AUC0-∞ [1, 30]: 8%
- increase in mean AUClast [1, 30]: 10%
- increase in mean Cmax [1, 30]: 14%
- Geometric least-squares mean ratio, AUC0-∞ [1, 31]: 108 (103, 113) %
- Geometric least-squares mean ratio, AUClast [1, 31]: 110 (104, 116) %
- Geometric least-squares mean ratio, Cmax [1, 31]: 114 (103, 126) %
- half-life ([1]; female, human, plasma, po): 20.5 h

SMILES: C[C@@H](c1nc(-c2ccc(C#N)cc2)cs1)[C@](O)(Cn1cncn1)c1cc(F)ccc1F [Isavuconazole, isavuconazole]
- maximum increase in CYP1A2 mRNA (CYP1A2 [2]): 5.4 fold
- maximum increase in phenacetin O-dealkylase activity (CYP1A2) (CYP1A2 [2]): 2.8 fold
- correlation of isavuconazole metabolism with CYP2A6 activity (CYP2A6): No correlations
- decrease in mean AUC0-∞ [3, 32]: 97%
- decrease in mean AUClast [3, 32]: 97%
- decrease in mean AUCτ [3, 32]: 90%
- decrease in mean Cmax [3, 32]: 75%
- Geometric least-squares mean ratio, AUC0-∞ [3, 33]: 3 (2, 3) %
- Geometric least-squares mean ratio, AUClast [3, 33]: 3 (3, 3) %
- Geometric least-squares mean ratio, AUCτ [3, 33]: 10 (9, 11) %
- Geometric least-squares mean ratio, Cmax [3, 33]: 25 (23, 27) %
- Tmax ([3]; male, human, plasma, po): 2 h
- ratio of the remaining isavuconazole (CYP3A5): 68.4%
- correlation of isavuconazole metabolism with CYP2D6 activity (CYP2D6): No correlations
- ratio of the remaining isavuconazole (CYP2B6 [4]): > 98%
- ratio of the remaining isavuconazole (CYP3A7): > 98%
- correlation of isavuconazole metabolism with CYP2E1 activity (CYP2E1): No correlations
- correlation of isavuconazole metabolism with CYP2C9 activity (CYP2C9 [5]): No correlations
- substrate of CYP2C9 (CYP2C9 [6]): not a substrate
- AUC(0-inf) [7, 34]: 84800 ng·h/mL
- AUC(0-t) [7, 34]: 64900 ng·h/mL
- Cmax [7, 34]: 2200 ng/mL
- Tmax [7, 34]: 2 h
- half-life [7, 34]: 117 h
- CL/F ([7]; isavuconazole 200 mg single oral dose alone, n = 12, arithmetic mean (SD)): 2.5 (0.6) L/h
- Geometric least-squares mean ratio, AUC0-∞ [7, 35]: 522 (409, 666) %
- Geometric least-squares mean ratio, AUClast [7, 35]: 373 (319, 435) %
- Geometric least-squares mean ratio, Cmax [7, 35]: 109 (93, 127) %
- increase in mean AUC0-∞ [7, 36]: 422%
- increase in mean AUClast [7, 36]: 273%
- increase in mean Cmax [7, 36]: 9%
- subjects reporting TEAEs (Safety [8]): 2 (16.7%) subjects
- correlation of isavuconazole metabolism with CYP1A2 activity (CYP1A2 [9]): No correlations
- correlation of isavuconazole metabolism with CYP4A11 activity (CYP4A11): No correlations
- maximum increase in CYP2C8 mRNA (CYP2C8 [10]): 4.3 fold
- maximum increase in amodiaquine N-dealkylase activity (CYP2C8) (CYP2C8 [10]): 2.6 fold
- ratio of the remaining isavuconazole (CYP2C8 [11]): > 98%
- increase in CYP2C19 mRNA levels (CYP2C19 [12]): No isavuconazole‐induced increases
- increase in S-(+)-mephenytoin 4'-hydroxylation activity (CYP2C19) (CYP2C19 [12]): No isavuconazole‐induced increases
- classification as inhibitor of CYP3A4 (CYP3A4 [13]; from midazolam coadministration in healthy adults, in vivo): moderate inhibitor
- classification as substrate of CYP3A4 (CYP3A4 [13]; from rifampin and ketoconazole coadministration in healthy adults): sensitive substrate
- ratio of the remaining isavuconazole (CYP3A4 [14]): 33.8%
- increase in isavuconazole exposure [15]: approximately 2 fold
- maximum increase in CYP2C9 mRNA (CYP2C9 [16]): 3.1 fold
- maximum increase in diclofenac 4'-hydroxylase activity (CYP2C9) (CYP2C9 [16]): none
- subjects who experienced TEAEs (Safety [17]): 19 n
- subjects with drug-related TEAEs (Safety [17]): 17 n
- Cmax ([18]; both, human, plasma, oral, 200 mg): 5200 ng/mL
- mean AUCτ in the presence vs absence of midazolam (in words) ([18]; isavuconazole 200 mg QD): comparable
- mean Cmax in the presence vs absence of midazolam (in words) ([18]; isavuconazole 200 mg QD): comparable
- maximum increase in CYP2B6 mRNA (CYP2B6 [19]): 11.4 fold
- maximum increase in bupropion hydroxylase activity (CYP2B6) (CYP2B6 [19]): 13.4 fold
- increase in CYP3A4 mRNA (CYP3A4 [20]): ≤ 6.4 fold
- increase in testosterone hydroxylation activity (CYP3A4) (CYP3A4 [20]): up to 3.4 fold
- Oral bioavailability [21]: 98%
- food or pH effect on absorption [21]: no evidence of a clinically relevant food or pH effect
- substrate of CYP2B6 (CYP2B6 [22]): not a substrate
- subjects who experienced TEAEs (Safety [23]): 6 n
- subjects with drug-related TEAEs (Safety [23]): 3 subjects
- substrate of P-glycoprotein (P-glycoprotein): not a substrate
- solubility (in words) [24]: poorly soluble
- correlation of isavuconazole metabolism with CYP2C19 activity (CYP2C19 [25]): No correlations
- permeability (in words) [26]: highly permeable
- Cmax ([1]; female, human, plasma, oral, 200 mg): 5800 ng/mL
- AUCτ ([1]; isavuconazole 200 mg QD + ethinyl estradiol 35 μg/norethindrone 1 mg, day 13): 81.4 (19.0) h·μg/mL
- AUCτ ([1]; isavuconazole 200 mg QD alone, day 12): 80.8 (18.7) h·μg/mL
- subjects who experienced TEAEs (Safety [27]): 10 n
- subjects with drug-related TEAEs (Safety [27]): 5 n

SMILES: CC(=O)N1CCN(c2ccc(OCC3COC(Cn4ccnc4)(c4ccc(Cl)cc4Cl)O3)cc2)CC1 (centres unmarked) [Ketoconazole, ketoconazole, reference compound]
- Geometric least-squares mean ratio, Cmax ([7]; ketoconazole + isavuconazole vs ketoconazole alone, 90% CI 105, 134): 118%
- Geometric least-squares mean ratio, AUCτ ([7]; ketoconazole + isavuconazole vs ketoconazole alone, 90% CI 112, 144): 127%
- subjects reporting TEAEs (Safety [8]): no subjects

SMILES: Cc1ncc2n1-c1ccc(Cl)cc1C(c1ccccc1F)=NC2 [Midazolam, midazolam]
- AUC(0-inf) ([18]; both, human, plasma, po, 3 mg): 46 ng·h/mL
- AUC(0-t) ([18]; both, human, plasma, po, 3 mg): 44.5 ng·h/mL
- Cmax ([18]; both, human, plasma, po, 3 mg): 10.7 ng/mL
- Tmax ([18]; both, human, plasma, po, 3 mg): 1 h
- half-life ([18]; both, human, plasma, po, 3 mg): 5.4 h
- CL/F ([18]; midazolam 3 mg single oral dose alone, day 1, n = 23, arithmetic mean (SD)): 72.1 (24.6) L/h
- Geometric least-squares mean ratio, AUC0-∞ [18, 37]: 203 (173, 238) %
- Geometric least-squares mean ratio, AUClast [18, 37]: 206 (175, 243) %
- Geometric least-squares mean ratio, Cmax [18, 37]: 172 (144, 205) %
- increase in mean AUC0-∞ [18, 38]: 103%
- increase in mean AUClast [18, 38]: 106%
- increase in mean Cmax [18, 38]: 72%
- subjects who experienced TEAEs (Safety [27]): 9 n
- subjects with drug-related TEAEs (Safety [27]): 6 n

SMILES: C#C[C@]1(O)CC[C@H]2[C@@H]3CCC4=CC(=O)CC[C@@H]4[C@H]3CC[C@@]21C [Norethindrone, norethindrone]
- Tmax ([1]; female, human, plasma, po): 1 h
- half-life ([1]; female, human, plasma, po): 13.1 h
- increase in mean AUC0-∞ [1, 39]: 16%
- increase in mean AUClast [1, 39]: 16%
- increase in mean Cmax [1, 39]: 6%
- Geometric least-squares mean ratio, AUC0-∞ [1, 40]: 116 (109, 123) %
- Geometric least-squares mean ratio, AUClast [1, 40]: 116 (109, 123) %
- Geometric least-squares mean ratio, Cmax [1, 40]: 106 (93, 120) %

SMILES: CO[C@H]1/C=C/O[C@@]2(C)Oc3c(C)c(O)c4c(O)c(c(/C=N/N5CCN(C)CC5)c(O)c4c3C2=O)NC(=O)/C(C)=C\C=C\[C@H](C)[C@H](O)[C@@H](C)[C@@H](O)[C@@H](C)[C@H](OC(C)=O)[C@@H]1C [Rifampin, rifampin, reference compound]
- subjects who experienced TEAEs (Safety [17]): 19 n
- subjects with drug-related TEAEs (Safety [17]): 7 n

SMILES: CNCC(=O)OCc1cccnc1N(C)C(=O)OC(C)[n+]1cnn(C[C@](O)(c2cc(F)ccc2F)[C@@H](C)c2nc(-c3ccc(C#N)cc3)cs2)c1 (some centres unmarked) [isavuconazonium sulfate]
- hydrolysis of prodrug by esterases (esterases): rapid hydrolysis

SMILES: CCC(C)n1ncn(-c2ccc(N3CCN(c4ccc(OCC5COC(Cn6cncn6)(c6ccc(Cl)cc6Cl)O5)cc4)CC3)cc2)c1=O (centres unmarked) [itraconazole]
- increase in exposure of midazolam on coadministration (CYP3A4 [28]): up to 10 fold

SMILES: CC[C@@H]([C@H](C)O)n1ncn(-c2ccc(N3CCN(c4ccc(OC[C@@H]5CO[C@@](Cn6cncn6)(c6ccc(F)cc6F)C5)cc4)CC3)cc2)c1=O [posaconazole]
- increase in exposure of midazolam on coadministration (CYP3A4 [28]): up to 5 fold

SMILES: C[C@@H](c1ncncc1F)[C@](O)(Cn1cncn1)c1ccc(F)cc1F [voriconazole]
- increases in ethinyl estradiol and norethindrone on coadministration (CYP3A4 [29]): less than 2 fold
- increase in midazolam AUC on coadministration (CYP3A4 [28]): approximately 10 fold
